Patent US7053107B2, “Indazole compounds and pharmaceutical compositions for inhibiting protein kinases, and methods for their use” (Agouron Pharmaceuticals, Inc., priority 2002, dated 2006)

Columns and labels:
[1] = target: T1, FGF-R1 (Homo sapiens, UniProt P11362, C488A/C584S/L457V); experiment: Fibroblast Growth Factor (FGF-R) spectrophotometric assay; format: biochemical; details: 1 μM compound; read-out: FGF-P % inhibit @1 μM
T1 construct: starting from the endogenous methionine residue 456 to glutamate 766; made in house; host or cells: baculovirus vector expression system
T1 sequence (P11362 456-766 L457V/C488A/C584S): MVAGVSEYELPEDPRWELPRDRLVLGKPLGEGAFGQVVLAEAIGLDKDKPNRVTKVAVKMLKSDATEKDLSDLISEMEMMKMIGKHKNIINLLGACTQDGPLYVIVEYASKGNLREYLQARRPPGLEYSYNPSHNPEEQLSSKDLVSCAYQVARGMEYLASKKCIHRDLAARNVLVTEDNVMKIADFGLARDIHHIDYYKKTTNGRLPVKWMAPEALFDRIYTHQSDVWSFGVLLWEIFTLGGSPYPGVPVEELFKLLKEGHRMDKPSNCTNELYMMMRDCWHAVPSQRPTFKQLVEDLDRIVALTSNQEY
Description: The intracellular kinase domain of human FGF-R1 was expressed using the baculovirus vector expression system starting from the endogenous methionine residue 456 to glutamate 766, according to the residue numbering system of Mohammadi et al., Mol. Cell. Biol., 16, 977–989 (1996). In addition, the construct also has the following 3 amino acid substitutions: L457V, C488A, and C584S.
(§1) The production of ADP from ATP that accompanies phosphoryl transfer was coupled to oxidation of NADH using phosphoenolpyruvate (PEP) and a system having pyruvate kinase (PK) and lactic dehydrogenase (LDH). The oxidation of NADH was monitored by following the decrease of absorbance at 340 nm (e340=6.22 cm^−1 mM^−1) using a Beckman DU 650 spectrophotometer. Assay conditions for phosphorylated VEGF-R2A50 (indicated as FLVK-P in the tables below) were the following: 1 mM PEP; 250 μM NADH; 50 units of LDH/mL; 20 units of PK/mL; 5 mM DTT; 5.1 mM poly(E4Y1); 1 mM ATP; and 25 mM MgCl2 in 200 mM HEPES, pH 7.5. Assay conditions for unphosphorylated VEGF-R2Δ50 (indicated as FLVK in the tables) were the following: 1 mM PEP; 250 μM NADH; 50 units of LDH/mL; 20 units of PK/mL; 5 mM DTT; […]; 3 mM ATP; and 60 mM MgCl2 and 2 mM MnCl2 in 200 mM HEPES, pH 7.5. Assays were initiated with 5 to 40 nM of enzyme. Ki values were determined by measuring enzyme activity in the presence of varying concentrations of test compounds. The data were analyzed using Enzyme Kinetic and Kaleidagraph software.
The spectrophotometric assay was carried out as described above for VEGF-R2, except for the following changes in concentration: FGF-R=50 nM, ATP=2 mM, and poly(E4Y1)=15 mM.

[2] = target: T2, unphosphorylated VEGF-R2Δ50 (Homo sapiens, UniProt P35968, DEL940-989/E990V); experiment: VEGF-R2 coupled spectrophotometric assay, unphosphorylated construct (FLVK); format: biochemical; details: % inhibition at 50 nM compound; read-out: FLVK Ki % inh @ 50 nM
T2 construct: VEGF-R2Δ50 contains residues 806–939 and 990–1171; made in house; host or cells: baculovirus/insect cell system
T2 sequence (P35968 with tags, fused parts or gaps DEL940-989/E990V limits assumed): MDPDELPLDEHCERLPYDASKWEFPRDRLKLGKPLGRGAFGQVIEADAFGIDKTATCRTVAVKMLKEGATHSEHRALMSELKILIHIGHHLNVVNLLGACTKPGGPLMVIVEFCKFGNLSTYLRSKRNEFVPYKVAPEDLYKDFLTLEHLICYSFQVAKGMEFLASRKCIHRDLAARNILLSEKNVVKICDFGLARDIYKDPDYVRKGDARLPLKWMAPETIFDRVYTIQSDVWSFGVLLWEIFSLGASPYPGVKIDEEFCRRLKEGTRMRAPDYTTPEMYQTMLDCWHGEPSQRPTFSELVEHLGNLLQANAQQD
Description: This construct determines the ability of a test compound to inhibit tyrosine kinase activity. A construct (VEGF-R2Δ50) of the cytosolic domain of human vascular endothelial growth factor receptor 2 (VEGF-R2) lacking the 50 central residues of the 68 residues of the kinase insert domain was expressed in a baculovirus/insect cell system. Of the 1356 residues of full-length VEGF-R2, VEGF-R2Δ50 contains residues 806–939 and 990–1171, and also one point mutation (E99OV) within the kinase insert domain relative to wild-type VEGF-R2. Autophosphorylation of the purified construct was performed by incubation of the enzyme at a concentration of 4 μM in the presence of 3 mM ATP and 40 mM MgCl2 in 100 mM HEPES, pH 7.5, containing 5% glycerol and 5 mM DTT, at 4° C. for 2 h. […] See Parast et al., Biochemistry, 37,16788–16801 (1998).
as §1

[3] = target: T3, PDGFRβ (Homo sapiens, UniProt P09619); experiment: PAE-PDGFRβ Phosphorylation in PAE-PDGFRB Cells Assay; format: cell-based; details: PAE cells overexpressing human PDGFRβ; read-out: PAE PDGFR autophos IC50
T3 construct: expressed in transfected cells; host or cells: porcine aorta endothelial (PAE) cells
T3 sequence (P09619 33-1106): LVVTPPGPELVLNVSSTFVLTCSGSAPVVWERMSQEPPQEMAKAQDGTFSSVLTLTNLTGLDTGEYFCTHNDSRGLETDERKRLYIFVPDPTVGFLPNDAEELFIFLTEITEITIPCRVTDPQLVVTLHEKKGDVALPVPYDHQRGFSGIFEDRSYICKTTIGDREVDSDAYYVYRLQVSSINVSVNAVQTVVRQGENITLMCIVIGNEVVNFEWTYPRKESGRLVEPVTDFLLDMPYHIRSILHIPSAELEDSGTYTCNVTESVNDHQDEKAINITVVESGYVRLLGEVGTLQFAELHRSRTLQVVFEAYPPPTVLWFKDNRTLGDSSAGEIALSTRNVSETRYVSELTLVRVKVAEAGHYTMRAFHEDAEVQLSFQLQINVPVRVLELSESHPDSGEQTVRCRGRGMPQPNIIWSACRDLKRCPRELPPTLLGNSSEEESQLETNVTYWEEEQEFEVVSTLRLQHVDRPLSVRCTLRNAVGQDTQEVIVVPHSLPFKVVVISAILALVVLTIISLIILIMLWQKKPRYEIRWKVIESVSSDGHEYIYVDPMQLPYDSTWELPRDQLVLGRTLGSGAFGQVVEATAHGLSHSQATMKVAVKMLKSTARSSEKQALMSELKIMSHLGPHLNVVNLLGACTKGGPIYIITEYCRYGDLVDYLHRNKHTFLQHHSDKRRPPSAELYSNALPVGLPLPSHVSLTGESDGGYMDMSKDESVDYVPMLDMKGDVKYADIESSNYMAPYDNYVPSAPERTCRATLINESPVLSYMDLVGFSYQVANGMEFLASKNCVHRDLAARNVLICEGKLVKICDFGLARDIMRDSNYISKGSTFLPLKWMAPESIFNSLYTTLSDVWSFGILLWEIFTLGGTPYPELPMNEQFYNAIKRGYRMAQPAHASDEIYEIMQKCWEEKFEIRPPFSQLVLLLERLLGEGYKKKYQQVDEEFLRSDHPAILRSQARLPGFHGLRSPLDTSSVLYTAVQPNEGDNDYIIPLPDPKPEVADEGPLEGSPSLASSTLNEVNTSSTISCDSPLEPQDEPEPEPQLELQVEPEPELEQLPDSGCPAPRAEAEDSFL
Protocol: This assay determines the ability of a test compound to inhibit the autophosphorylation of PDGFRβ in porcine aorta endothelial (PAE)-PDGFRβ cells. PAE cells that overexpress human PDGFRβ were used in this assay. The cells were cultured in Ham's F12 media supplemented with 10% fetal bovine serum (FBS) and 400 ug/ml G418. Twenty thousands cells were seeded in each well of a 96-well plate in 50 μL of growth media and allowed to attach for 6 hours at 37° C. Cells were then exposed to the starvation media (Ham's F12 media supplemented with 0.1% FBS) for 16 hours. After the starvation period was over, 10 μL of test agent in 5% DMSO in starvation media were added to the test wells and 10 μL of the vehicle (5% DMSO in starvation media) were added into the control wells. The final DMSO concentration in each well was 0.5%. Plates were incubated at 37° C. for 1 hour and the cells were then stimulated with 1 μg/mL PDGF-BB (R & D System) in the presence of 2 mM Na3VO4 for 8 minutes. The cells were washed once with 1 mm Na3VO4 in HBSS and lysed by adding 50 μL per well of lysis buffer. One hundred μL of dilution buffer were then added to each well and the diluted cell lysate was transferred to a 96-well goat ant-rabbit coated plate (Pierce), which was pre-coated with Rabbit anti Human PDGFRβ antibody (Santa Cruz). The plates were incubated at room temperature for 2 hours and washed seven times with 1% Tween 20 in PBS. HRP-PY20 (Santa Cruz) was diluted and added to the plate for a 30-minute incubation. Plates were then washed again and TMB peroxidase substrate (Kirkegaard & Perry) was added for a 10-minute incubation. One hundred μL of 0.09 N H2SO4 was added into each well of the 96-well plate to stop the reaction. Phosphorylation status was assessed by spectrophotometer reading at 450 nm. IC50 values were calculated by curve fitting using a four-parameter analysis.

[4] = system: human umbilical vein endothelial cells (HUVEC); experiment: HUVEC Proliferation Assay (VEGF-stimulated); format: cell-based
Protocol: This assay determines the ability of a test compound to inhibit the growth factor-stimulated proliferation of human umbilical vein endothelial cells (“HUVEC”). HUVEC cells (passage 3–4, Clonetics, Corp.) were thawed into EGM2 culture medium (Clonetics Corp) in T75 flasks. Fresh EGM2 medium was added to the flasks 24 hours later. Four or five days later, cells were exposed to another culture medium (F12K medium supplemented with 10% fetal bovine serum (FBS), 60 μg/mL endothelial cell growth supplement (ECGS), and 0.1 mg/mL heparin). Exponentially-growing HUVEC cells were used in experiments thereafter. Ten to twelve thousand HUVEC cells were plated in 96-well dishes in 100 μl of rich, culture medium (described above). The cells were allowed to attach for 24 hours in this medium. The medium was then removed by aspiration and 105 μl of starvation media (F12K+1% FBS) was added to each well. After 24 hours, 15 μl of test agent dissolved in 1% DMSO in starvation medium or this vehicle alone was added into each treatment well; the final DMSO concentration was 0.1%. One hour later, 30 μl of VEGF (30 ng/mL) in starvation media was added to all wells except those containing untreated controls; the final VEGF concentration was 6 ng/mL. Cellular proliferation was quantified 72 hours later by MTT dye reduction, at which time cells were exposed for 4 hours MTT (Promega Corp.). Dye reduction was stopped by addition of a stop solution (Promega Corp.) and absorbance at 595λ was determined on a 96-well spectrophotometer plate reader.
IC50 values were calculated by curve-fitting the response of A^595 to various concentrations of the test agent; typically, seven concentrations separated by 0.5 log were employed, with triplicate wells at each concentration. For screening compound library plates, one or two concentrations (one well per concentration) were employed, and the % inhibition was calculated by the following formula: % inhibition=(control−test)[…](control−starvation) where
control=A^595 when VEGF is present without test agent
test=A^595 when VEGF is present with test agent
starvation=A^595 when VEGF and test agent are both absent.

inhibition at 1 µM [1] | inhibition at 0.05 µM [2] | IC50 [3] | Compound | IC50 [4]
52% | 82% | – | Cc1ccnc(/C=C/c2n[nH]c3cc(Nc4ccccc4C(=O)NCC#CCO)ccc23)c1 [Example 51, 2-{3-[(E)-2-(4-Methyl-pyridin-2-yl)-vinyl]-1H-indazol6-ylamino}-N-(4-hydroxy-but-2-ynyl)-benzamide] | –
– | 72% | 4.5 nM | C=C(C)CNC(=O)c1ccccc1Nc1ccc2c(/C=C/c3cc(C)ccn3)n[nH]c2c1 [Example 34, N-(2-Methyl-allyl)-2-{[(E)-2-(4-methyl-pyridin-2-yl)-vinyl]-1H-indazol-6-ylamino}-benzamide] | –
52% | 91% | 1.3 nM | O=C(NCC#CCO)c1ccccc1Nc1ccc2c(/C=N/n3cccc3)n[nH]c2c1 [Example 57, N-(4-Hydroxy-but-2-ynyl)-2-[3-(pyrrol-1-yliminomethyl)-1H-indazol-6-ylamino]-benzamide] | < 1.8 nM
35% | 91% | – | CC(=O)OCC#CCNC(=O)c1ccccc1Nc1ccc2c(/C=C/c3cc(C)cc(C)n3)n[nH]c2c1 [Example 20, Acetic acid 4-(2-{3-[(E)-2-(4,6-dimethyl-pyridin-2-yl)-vinyl]-1H-indazol-6-ylamino}-benzoylamino)-but-2-ynyl ester] | 0.084 nM
63% | 80% | 6 nM | C#CCNC(=O)c1ccccc1Nc1ccc2c(/C=C/c3cc(C)cc(C)n3)n[nH]c2c1 [Example 13, N-(prop-2-ynyl)-2-{3-[(E)-2-(2,4-dimethyl-pyridin-2-yl)-vinyl]-1H-indazol-6-ylamino}-benzamide] | –
36% | 11% | – | Cc1ccnc(/C=C/c2n[nH]c3cc(Nc4ccccc4C(=O)NCc4nccn4C)ccc23)c1 [Example 49, N-(1-Methyl-1H-imidazol-2-ylmethyl)-2-{3-[2-(4-methyl-pyridin-2-yl)-vinyl]-1H-indazol-6-ylamino}-benzamide] | –
76% | 96% | 4.7 nM | Cc1ccnc(/C=C/c2n[nH]c3cc(Nc4ccccc4C(=O)NCc4cccc(C)n4)ccc23)c1 [Example 39, N-(6-Methyl-pyridin-2-ylmethyl)-2-{3-[2-(4-methyl-pyridin-2-yl)-vinyl]-1H-indazol-6-ylamino}-benzamide] | –
63% | 85% | 2.4 nM | C#CCNC(=O)c1ccccc1Nc1ccc2c(/C=N/n3cccc3)n[nH]c2c1 [Example 63, N-Prop-2-ynyl-2-[3-(pyrrol-1-yliminomethyl)-1H-indazol-6-ylamino]-benzamide] | 0.1 nM
13% | 64% | – | Cc1cc(C)nc(/C=C/c2n[nH]c3cc(Nc4ncccc4C(=O)NCC#CC4CC4)ccc23)c1 [Example 25, N-(3-Cyclopropyl-prop-2-ynyl)-2-{3-[(E)-2-(4,6-dimethyl-pyridin-2-yl)-vinyl]-1H-indazol-6-ylamino}-nicotinamide] | 3 nM
12% | 27% | – | C#CCNC(=O)c1ccccc1Nc1ccc2c(C(=O)NC)n[nH]c2c1 [Example 1(k), 6-(2-Prop-2-ynylcarbamoyl-phenylamino)-1H-indazole-3-carboxylic acid methylamide] | > 10 nM
67% | 97% | 3.7 nM | O=C(NCC#CC1CC1)c1ccccc1Nc1ccc2c(/C=N/n3cccc3)n[nH]c2c1 [Example 55, N-(3-Cyclopropyl-prop-2-ynyl)-2-[3-(pyrrol-1-yliminomethyl)-1H-indazol-6-ylamino]-benzamide] | 0.2 nM
24% | 28% | – | Cc1ccnc(/C=C/c2n[nH]c3cc(Nc4ccccc4C(=O)NCc4nc5ccccc5n4C)ccc23)c1 [Example 45, N-(1-Methyl-1H-benzoimidazol-2-ylmethyl)-2-{3-[(E)2-(4-methyl-pyridin-2-yl)-vinyl]-1H-indazol-6-ylamino}-benzamide] | –
